Test results: patent US20020082273A1, “Agents for use in the treatment of alzheimer's disease” (priority 1998, published 2002)
Marks after values point to notes of the source that are not given here.

Assays:
[1] = test system: Aβ; test: Effect of agents on Cu^2+-induced SDS-resistant Aβ polymerization; format: biochemical, human
Protocol: Cu^2+-induced SDS-resistant oligomerization of Aβ: Aβ (2.5 μM), 150 mM NaCl, 20 mM hepes (pH 6.6, 7.4, 9) with or without ZnCl2 or CuCl2. Following incubation (37° C.), aliquots of each reaction (2 ng peptide) were collected at 0 d, 1 d, 3 d and 5 d and western blotted using anti-Aβ monoclonal antibody 8E10 (FIG. 9). Migration of the molecular size markers are indicated (kDa). […] Cu^2+ (2-30 μM) induced SDS-resistant polymerization of peptide. […] It should be noted that other means of visualizing and/or determining the presence or absence of polymerization other than western blot analysis may be used. Such other means include but are not limited to density sedimentation by centrifugation of the samples.
It is possible that the decreased polymerization may be due to chelation of Cu^2+ by BC, however given the low binding affinity of BC for Cu^2+ compared with Aβ, it seems likely that the chelation of Cu^+ by BC prevents it from inducing SDS-resistant Ad polymerization. Therefore, Aβ may undergo a hydroxyl radical modification that promotes its assembly into SDS-resistant polymers.

[2] = Table 1; K=[ML]/[M][L]; cited from earlier work
[3] = cited from earlier work
[4] = Table 1; K=[ML]/[M][L]; cited from earlier work; remark: listed apart in the source
[5] = test system: Aβ deposits of age-matched control brain; test: Extraction of Aβ from age-matched non-AD control brain tissue; format: biochemical, human; conditions: chelator 2 mM
Protocol: (§1) Suitable quantities of gray matter from each subject were minced to serve as pools of homogenous tissue. […] To obtain the soluble fraction, the homogenates were centrifuged at 100,000× g for 30 min (Beckman J180, Beckman instruments, Fullerton, California) and the supernatant collected in 1 ml aliquots and stored on ice or immediately frozen at −70° C. In each experiment, all protein was precipitated from 1 ml of supernatant from each treatment group using 1:5 ice cold 10% trichloracetic acid and pelleted in a bench top microfuge (Heraeus, Osteroder, Germany) at 10,000× g. The remaining pellet was frozen at −70° C.
(§2) Precipitated protein was subjected to SDS polyacrylamide gel electrophoresis (SDS-PAGE) on Novex pre-cast 10-20% Tris-Tricine gels followed by Western transfer onto 0.2 μm nitrocellulose membrane (Biorad, Hercules, Calif.). Aβ was detected using the WO2, G210 or G211 monoclonal antibodies (Ida, N., et al., J. Biol. Chem., 271:22908 (1996)) in combination with HRP-conjugated rabbit anti-mouse IgG (Dako, Denmark), and visualized using chemiluminescence (ECL, Amersham Life Science, Little Chalfont, Buckinghamshire, UK). Each gel included two or more lanes containing known quantities of synthetic Aβ which served as internal reference standards. Blot images were captured by a Relisys scanner with transparency adapter (Teco Information Systems, Taiwan, ROC) and densitometry conducted using the NIH Image 1.6 program (National Institutes for Health, USA. Modified for PC by Scion Corporation, Frederick, Md.), calibrated using a step diffusion chart. For quantitation of Aβ in brain extracts, the internal reference standards of synthetic Aβ were utilized to produce standard curves from which values were interpolated.

[6] = Residual metals in post-centrifugation pellets of brain homogenates (ICP-AES); format: biochemical, human; set-up: Residual Metal Levels, Mg: unit not given here; conditions: for Residual Al in extracted pellet / Residual Ca in extracted pellet / Residual Cu in extracted pellet / Residual Fe in extracted pellet / Residual Mg in extracted pellet / Residual Zn in extracted pellet: Table 6
[7] = cited from earlier work; remark: listed apart in the source
[8] = Table 1; K=[ML]/[M][L]; cited from earlier work; remark: listed apart in the source
[9] = cited from earlier work; remark: listed apart in the source
[10] = test system: Aβ deposits of AD-affected brain; test: Extraction (solubilization) of Aβ from post-mortem AD brain tissue homogenates, western blot densitometry; format: biochemical, human; conditions: for Effect of Chelators upon extraction of Aβ (% change from control): mean n = 6 AD brain samples, above PBS extraction alone
Protocol: Identical regions of frontal cortex (0.5 g) from post-mortem brains of individuals with AD, as well as non-AD conditions, were homogenized in TBS, […] ±metal chelators.
0.5 g of prefrontal cortex was dissected and homogenized in PBS ±chelator as indicated. The homogenate was then centrifuged (100,000 g) and the supernatant removed, and a sample taken for western blot assay using anti-Aβ specific antibodies after Tricine PAGE. Densitometry was performed against synthetic peptide standards.
Densitometry of Aβ western blots (FIGS. 19A-19C) was performed for a series of 6 AD brain samples homogenized in the presence of chelators as indicated.
Next the ability of clioquinol to extract Aβ deposits from human brain was examined. […] Fragments of prefrontal cortex from individual post-mortem samples with the histopathological diagnosis of AD were homogenized in PBS, pH 7.4, and then pelleted after centrifugation. The pellets were then washed with agitation twice for 30 minutes, 4° C., with PBS or PBS containing clioquinol (100% =0.8 μM clioquinol). The suspension was then pelleted (10,000 g for 30 minutes) and the supernatant removed (S1) for western blot analysis using Aβ-specific antibodies (illustrated). The pellet was treated a second time in this experiment with agitation and centrifugation, and the second supernatant (S2) analysed.
Soluble Aβ (ng/g tissue) was determined as described. Total Aβ was determined following formic acid extraction of otherwise untreated tissue.
as §1
as §2, with “Aβ was detected using the WO2, G210 or G211 monoclonal antibodies (Ida, N., et al., J. Biol. Chem., 271:22908 (1996)) in combination with HRP-conjugated rabbit anti-mouse IgG (Dako, Denmark), and visualized using chemiluminescence (ECL, Amersham Life Science, Little Chalfont, Buckinghamshire, UK).” left out

[11] = cited from earlier work; remark: listed apart in the source
[12] = Table 3, TPEN 0.1 mM, AD (n=6) and healthy controls (n=4)
[13] = Table 7, 10 AD specimens, 0.1 mM TPEN

## Cl.O=C(O)CCP(CCC(=O)O)CCC(=O)O [TCEP, Tris(2-Carboxyethyl)-Phosphine Hydrochloride]
[1]
  effect on Cu^2+-induced SDS-resistant Aβ polymerization: significantly reduced the level of polymerization

## c1ccc(CN(CCN(Cc2ccccn2)Cc2ccccn2)Cc2ccccn2)nc1 [TPEN, N,N,N′,N′-tetrakis [2-pyridyl-methyl] ethylenediamine]
[2]
  LogK, Al: 0
[3]; Table 1, K=[ML]/[M][L]
  LogK, Ca: 3.0
[3]; Table 5, NIST database
  Stability constant logK10, Ca: 3
[4]
  LogK, Co: 0
[5]; AC subject 1
  Extractable Aβ: 0.22 µg/g
  Extractable Aβ (% of total): (32.0) %
[5]; AC subject 2
  Extractable Aβ: 0.38 µg/g
  Extractable Aβ (% of total): (9.0) %
[5]; AC subject 3
  Extractable Aβ: 0.26 µg/g
  Extractable Aβ (% of total): (9.7) %
[5]; AC subject 4
  Extractable Aβ: 0.09 µg/g
  Extractable Aβ (% of total): (3.0) %
[5]; AC subject 5
  Extractable Aβ: 1.06 µg/g
  Extractable Aβ (% of total): (29.5) %
[5]; AC subjects 1-5
  Extractable Aβ (% of total), X (mean): (16.7) %
  Extractable Aβ, X (mean): 0.40 µg/g
[5]; age-matched control tissue
  X C/PBS (mean chelator / PBS): 1.6
[6]; [12]
  Residual Al in pellet: 65 mg/kg
  Residual Ca in pellet: (210) mg/kg
  Residual Cu in pellet: 9.8 mg/kg
  Residual Fe in pellet: 239 mg/kg
  Residual Mg in pellet: 230 mg/kg
  Residual Zn in pellet: 33.2* mg/kg
[6]; chelator 0.001 mM
  Residual Al in extracted pellet: 34 mg/kg
  Residual Ca in extracted pellet: 490 mg/kg
  Residual Cu in extracted pellet: 12 mg/kg
  Residual Fe in extracted pellet: 512 mg/kg
  Residual Mg in extracted pellet: 192 mg/kg
  Residual Zn in extracted pellet: 42 mg/kg
[6]; chelator 0.004 mM
  Residual Al in extracted pellet: 22 mg/kg
  Residual Ca in extracted pellet: 322 mg/kg
  Residual Cu in extracted pellet: 10 mg/kg
  Residual Fe in extracted pellet: 317 mg/kg
  Residual Mg in extracted pellet: 147 mg/kg
  Residual Zn in extracted pellet: 28 mg/kg
[6]; chelator 0.04 mM
  Residual Al in extracted pellet: 22 mg/kg
  Residual Ca in extracted pellet: 956 mg/kg
  Residual Cu in extracted pellet: 10 mg/kg
  Residual Fe in extracted pellet: 322 mg/kg
  Residual Mg in extracted pellet: 201 mg/kg
  Residual Zn in extracted pellet: 22 mg/kg
[6]; chelator 0.1 mM
  Residual Al in extracted pellet: 60 mg/kg
  Residual Ca in extracted pellet: 708 mg/kg
  Residual Cu in extracted pellet: 12 mg/kg
  Residual Fe in extracted pellet: 389 mg/kg
  Residual Mg in extracted pellet: 200 mg/kg
  Residual Zn in extracted pellet: 21 mg/kg
[6]; chelator 2.0 mM
  Residual Al in extracted pellet: 148 mg/kg
  Residual Ca in extracted pellet: 419 mg/kg
  Residual Cu in extracted pellet: 11 mg/kg
  Residual Fe in extracted pellet: 376 mg/kg
  Residual Mg in extracted pellet: 200 mg/kg
  Residual Zn in extracted pellet: 19 mg/kg
[6]; chelator 5.0 mM
  Residual Al in extracted pellet: 16 mg/kg
  Residual Ca in extracted pellet: 377 mg/kg
  Residual Cu in extracted pellet: 10 mg/kg
  Residual Fe in extracted pellet: 307 mg/kg
  Residual Mg in extracted pellet: 205 mg/kg
  Residual Zn in extracted pellet: 17 mg/kg
[6]; [13]
  Residual Metal Levels, Al: 65
  Residual Metal Levels, Ca: 210
  Residual Metal Levels, Cu: 9.8
  Residual Metal Levels, Fe: 239
  Residual Metal Levels, Mg: 230
  Residual Metal Levels, Zn: 33.2
[7]; Table 1, K=[ML]/[M][L]
  LogK, Zn: 15.4
[7]; Table 5, NIST database
  Stability constant logK10, Zn: 15.4
[8]
  LogK, Mg: 0
[9]; Table 1, K=[ML]/[M][L]
  LogK, Fe: 14.4
[9]; Table 5, NIST database
  Stability constant logK10, Fe: 14.4
[10]; 0.1 mM chelator
  Effect of Chelators upon extraction of Aβ (% change from control): 182%
[10]; 2.0 mM chelator
  Effect of Chelators upon extraction of Aβ (% change from control): 241%
[10]; 6 AD brains, 0.1 or 2.0 mM
  mean increase of Aβ solubilization over PBS alone: around 2 fold
[10]; AD subject 1, chelator 2 mM
  Extractable Aβ: 0.21 µg/g
  Extractable Aβ (% of total): (0.2) %
[10]; AD subject 2, chelator 2 mM
  Extractable Aβ: 3.40 µg/g
  Extractable Aβ (% of total): (4.4) %
[10]; AD subject 3, chelator 2 mM
  Extractable Aβ: 1.80 µg/g
  Extractable Aβ (% of total): (2.25) %
[10]; AD subject 4, chelator 2 mM
  Extractable Aβ: 5.50 µg/g
  Extractable Aβ (% of total): (9.2) %
[10]; AD subject 5, chelator 2 mM
  Extractable Aβ: 5.00 µg/g
  Extractable Aβ (% of total): (3.5) %
[10]; AD subject 6, chelator 2 mM
  Extractable Aβ: 0.28 µg/g
  Extractable Aβ (% of total): (1.75) %
[10]; AD subjects 1-6, chelator 2 mM
  Extractable Aβ (% of total), X (mean): (4.6) %
  Extractable Aβ, X (mean): 2.73 µg/g
[10]; AD tissue, chelator 2 mM
  X C/PBS (mean chelator / PBS): 2.60
[10]; neutral saline buffer, TPEN 5 μM
  efficiency in extracting Aβ: highly efficient
[11]; Table 1, K=[ML]/[M][L]
  LogK, Cu: 20.2
[11]; Table 5, NIST database
  Stability constant logK10, Cu: 20.2

## O=S([O-])S(=O)(=O)[O-].[Na+].[Na+] [sodium metabisulfite]
[1]
  effect on Cu^2+-induced SDS-resistant Aβ polymerization: moderately attenuates
